Where a name gives a salt, the structure may show the parent alone. Marks after values point to notes of the source that are not given here.
Assays:
[1] = tested on: lipopolysaccharide (LPS) induced fever model in SD rats; experiment: Lipopolysaccharide (LPS) induced fever in SD rats; assay type: in vivo
Description: • Animals: 230-260 grams of male SD rats; • Drugs: lipopolysaccharide (LPS, SIGMA L-2880), aspirin (SIGMA A2093), protein BD-3; Instruments: electronic balance (SARTORIUS BP121S type), electronic clinical thermometer (CITIZEN CT-513W type). • Experiment grouping: • Normal control group; • Model group: lipopolysaccharide fever model; • Positive control group: Aspirin 300 mg/kg group; • Protein BD-3, 10 mg/kg group, 50 mg/kg group. • Method: the method of intraperitoneal injection of Lipopolysaccharide to replicate rat fever model.
(§1) Preparation of experimental animals: After the experimental animals adapt to the experimental environment (temperature 22° C.±2° C., relative humidity 50%±2%) for 1 day. Pre-adaptation to measure rectal temperature at 8:00 and 15:00, rats were fasted and water was taken freely 12 h before experiment, and let the animal to empty its feces before measuring the rectal temperature. Apply petroleum jelly to the electronic thermometer probe before each temperature measurement. Insert the rat rectum 2 cm (can be marked at 2 cm to ensure that the depth of each insertion is consistent), and record the body temperature after the reading is stable.
Intraperitoneal injection of lipopolysaccharide to replicate rat fever model: The body temperature of the rats was measured before modeling. Qualified rats with a body temperature of 36.2-37.3° C. were selected and randomly divided into groups with 8 rats in each group. After oral administration of aspirin and different doses of protein BD-3, lipopolysaccharide (20 μg/kg, 2 ml/kg) was injected intraperitoneally immediately, and the normal control group was injected intraperitoneally with an equal volume of normal saline. The body temperatures of the rats were monitored after 2 hours for a total of 8 hours.
(§2) According to the body temperature measured at each time point on the day of the experiment, calculate the mean, standard deviation and standard error of the body temperature of each group of rats. The data of each group was compared with TTEST, and P<0.05 was considered as a significant difference.

[2] = tested on: acetic acid writhing in ICR mice; experiment: Acetic acid writhing in ICR mice; assay type: in vivo
Description: • Animals: male ICR mice; • Drugs and reagents: aspirin, physiological saline, glacial acetic acid, protein BD-3. • Experiment grouping: • Model group; • Aspirin 300 mg/kg group; • Protein BD-3, 50 mg/kg group, 200 mg/kg group.
One day after the experimental animals adapt to the environment, Aspirin 300 mg/kg, protein BD-3 50 mg/kg, 200 mg/kg were given orally one hour in advance, and the administration volume was 10 ml/kg; Then, 0.6% acetic acid solution was injected intraperitoneally, and the incubation period (seconds) and frequency of writhing in the animal was observed within 15 minutes.
Calculate the mean and standard error of the data in each group. Compared with the model group by TTEST, P<0.05 was considered as statistically different.

[3] = tested on: yeast-induced fever model in SD rats; experiment: Yeast-induced fever model of SD rats; assay type: in vivo
Description: • Animals: 230-260 grams of male SD rats; • Medicines: yeast (OXOID LP0021), aspirin (SIGMA A2093), protein BD-3; • Instruments: electronic balance (SARTORIUS BP121S type), electronic clinical thermometer (CITIZEN CT-513W type). • Experiment grouping: • Normal control group; • Model group: yeast fever model; • Positive control group: Aspirin 300 mg/kg group; • Protein BD-3, 10 mg/kg group, 50 mg/kg group. • Method:
as §1
Subcutaneous injection of dry yeast to replicate rat fever model: The body temperature of the rats was measured before modeling. Qualified rats with a body temperature of 36.2-37.3° C. were selected and randomly divided into groups with 8 rats in each group. After oral administration of aspirin and different doses of protein BD-3, 20% yeast suspension (10 ml/kg) was injected subcutaneously immediately, and the normal control group was injected intraperitoneally with an equal volume of normal saline. The body temperatures of the rats were monitored after 2 hours for a total of 8 hours.
as §2

[4] = tested on: PLO-induced epilepsy in mice; experiment: Pilocarpine (PLO) induced convulsive epilepsy in mice; assay type: in vivo, ICR mice; details: Diazepam 2 mg/kg
Description: • Animals: male ICR mice; • Drugs: Pilocarpine HCl (PLO, pilocarpine, pilocarpine hydrochloride), Diazepam (diazepam tablets), protein BD-3. • Experiment grouping: • Model group: • Diazepam 2 mg/kg group; • Protein BD-3, 50 mg/kg group, 200 mg/kg group.
The drug was administered once in the afternoon the day before modeling, PLO-225 mg/kg (modeling agent) was injected intraperitoneally 1 hour after the test drug was administered intragastrically on the day of modeling. And positive drug can be administered once 20 minutes before modeling. Observe for 30 minutes after PLO injection.
Observation indicators: (1)Seizure situation: the time of seizures from Grade II to Grade IV; (2)the time to death.
(§3) Seizure grade: Refer to Racine grading standard: Grade 0: No response; Grade I: manifested as twitching of facial muscles or the corners of the mouth; Grade II: can nod; Grade III: twitching of one limb; Grade IV: rigidity or body twitching; Grade V: generalized epilepsy (generalized tonic seizures).
Count the number of Grade IV seizures and deaths in each group of mice in the experiment; Grade II, III and IV incubation period. […] Chi-square test was used for statistics of the number of cases. The mean value and standard error of the incubation period were calculated, and TTEST was used to compare the model group with other groups. P<0.05 was considered as a significant difference.

[5] = tested on: cough induced by ammonia water in mice; experiment: Antitussive test, cough induced by ammonia water in mice; assay type: in vivo, ICR mice
Description: • Animals: male ICR mice; • Drugs and reagents: dextromethorphan hydrobromide, ammonia water, 0.2% CMC-Na, protein BD-3; • Apparatus: Compressed nebulizer (403T type), balance (XS105DU type). • Experiment grouping: • Solvent control group; • Dextromethorphan 15 mg/kg group; • Protein BD-3, 20 mg/kg group, 50 mg/kg group.
Dextromethorphan and different doses of protein BD-3 (administration volume 10 ml/kg) were given orally in groups, and the solvent control group was given the same volume of distilled water. One hour later, mice were put into a sealed box and atomized 10% ammonia water for 10 seconds, and then observed and recorded the incubation period of cough in mice and the number of coughs in 2 minutes.
Record the time point of oral administration, the time point of atomization experiment, the incubation period of mice cough and the number of coughs within 2 minutes, respectively. The incubation period of cough refers to the number of seconds from the start of the atomization of ammonia to the occurrence of cough. The performance of coughing in mice is based on contraction of their abdominal muscles (breast contraction) and opening their mouths at the same time. Calculate the mean and standard error of each group of data, and use TTEST to compare the model group with other groups, and P<0.05 is considered as a significant difference.

[6] = tested on: PTZ-induced epilepsy in mice; experiment: Pentylenetetrazole (PTZ)-induced epilepsy in mice; assay type: in vivo, ICR mice; details: Retigabine 60 mg/kg
Description: • Animals: male ICR mice; • Medicines: Pentylenetetrazol (PTZ), Retigabine, Protein BD-3. • Experiment grouping: • Model group; • Retigabine 60 mg/kg group; • Protein BD-3, 50 mg/kg group, 200 mg/kg group;
The drug was administered once in the afternoon the day before modeling, On the day of modeling, PTZ-65 mg/kg (modeling agent) was injected intraperitoneal 1 hour after the test drug was administered intragastrically, and the positive drug can be administered once half an hour before modeling. Continue to observe for 15 minutes after injection of PTZ.
Observation index: (1)Seizure situation: the time of seizures from Grade III to Grade VI; (2)Death situation
as §3
Count the cases of seizures and deaths in each group of mice in the experiment; Grade III and IV incubation period. The incubation period of mice that have not attacked to Grade IV is recorded as the maximum of 900 seconds. Chi-square test was used for statistics of the number of cases. Calculate the mean and standard error of the incubation period. Use TTEST to compare the model group with other groups, and P<0.05 is considered as a significant difference.

[7] = aspirin 300 mg/kg oral, LPS 20 μg/kg i.p., model group 37.8 ± 0.2
[8] = aspirin 300 mg/kg oral, 20% yeast s.c., model group 37.7 ± 0.1

CC(=O)Oc1ccccc1C(=O)O [aspirin, reference compound]
Body temperature 2 hours after modeling ([1]; aspirin 300 mg/kg oral, LPS 20 μg/kg i.p., model group 37.6 ± 0.1): 36.8 ± 0.1 °C | Body temperature 4 hours after modeling ([1]; aspirin 300 mg/kg oral, LPS 20 μg/kg i.p., model group 37.8 ± 0.1): 36.9 ± 0.2 °C | Body temperature 6 hours after modeling [1, 7]: 36.8 ± 0.2 °C | Body temperature 8 hours after modeling [1, 7]: 36.9 ± 0.1 °C | Effect on body temperature of model rats (in words) ([1]; aspirin 300 mg/kg, at 2, 4, 6 and 8 hours after modeling, P<0.05 vs model group): can effectively inhibit the increase in body temperature of model rats | Writhing incubation period and times of writhing vs model group (in words) ([2]; Aspirin 300 mg/kg, P<0.05): can significantly delay the incubation period of writhing and reduce the times of writhing | Writhing incubation period ([2]; aspirin 300 mg/kg oral, 0.6% acetic acid i.p., model group 204.2 ± 19.6): 290.3 ± 37.0 s | Frequency of writhing ([2]; aspirin 300 mg/kg oral, within 15 minutes, model group 33.3 ± 2.5): 15.2 ± 2.9 times | Body temperature 2 hours after modeling ([3]; aspirin 300 mg/kg oral, 20% yeast s.c., model group 37.5 ± 0.1): 37.0 ± 0.1 °C | Body temperature 8 hours after modeling ([3]; aspirin 300 mg/kg oral, 20% yeast s.c., model group 37.6 ± 0.1): 37.0 ± 0.1 °C | Body temperature 4 hours after modeling [3, 8]: 37.0 ± 0.1 °C | Body temperature 6 hours after modeling [3, 8]: 37.0 ± 0.1 °C | Effect on body temperature of model rats (in words) ([3]; aspirin 300 mg/kg, at 4 hours, 6 hours, and 8 hours after modeling, P<0.05 vs model group): can effectively inhibit the increase in body temperature of model rats

CN1C(=O)CN=C(c2ccccc2)c2cc(Cl)ccc21 [Diazepam, reference compound]
mortality rate ([4]; PLO 225 mg/kg i.p., model group 0): 0 | Grade IV seizure rate ([4]; PLO 225 mg/kg i.p., model group 80%): 0** % | Grade IV seizure incubation period ([4]; mean ± SEM, maximum recorded 1800 seconds, model group 894 ± 164): 1800 ± 0 s | Grade II seizure incubation period ([4]; mean ± SEM, model group 86 ± 5): 109 ± 8 s | Grade III seizure incubation period ([4]; mean ± SEM, model group 142 ± 6): 182 ± 14 s | Cases of Grade IV ([4]; of 10 mice, PLO 225 mg/kg i.p., 30 min observation, model group 8): 0** | Cases of deaths ([4]; of 10 mice, PLO 225 mg/kg i.p., model group 0): 0

COc1ccc2c(c1)[C@]13CCCC[C@@H]1[C@H](C2)N(C)CC3 [Dextromethorphan, dextromethorphan hydrobromide, reference compound]
Incubation period (cough) ([5]; Dextromethorphan 15 mg/kg oral, X ± SEM, solvent control 26.9 ± 2.3): 38.4 ± 4.5 s | Number of coughs ([5]; Dextromethorphan 15 mg/kg oral, within 2 minutes, X ± SEM, solvent control 67.1 ± 5.7): 34.0 ± 2.9 | Cough incubation period and number of coughs vs solvent control (in words) ([5]; dextromethorphan 15 mg/kg, P<0.05): significant improvement in the incubation period and the number of coughs

CCOC(=O)Nc1ccc(NCc2ccc(F)cc2)cc1N [Retigabine, reference compound]
mortality rate ([6]; PTZ 65 mg/kg i.p., model group 10%): 0% | Grade IV seizure rate ([6]; PTZ 65 mg/kg i.p., model group 90%): 20%** | Grade IV seizure incubation period ([6]; mean ± SEM, maximum recorded 900 seconds, model group 185 ± 84): 745 ± 103 s | Grade III seizure incubation period ([6]; mean ± SEM, model group 63 ± 6): 83 ± 7 s | Cases of Grade IV ([6]; of 10 mice, PTZ 65 mg/kg i.p., 15 min observation, model group 9): 2** | Cases of deaths ([6]; of 10 mice, PTZ 65 mg/kg i.p., model group 1): 0
